The source of these data is the OPERA property sets (Mansouri et al. 2018).

Values after ≈ are worked out from the molar mass of the structure shown.

One may read the solubility as the concentration that dissolves in the medium under given conditions. Read a low solubility as little dissolved substance. As to `CS/C(C)=N/OC(=O)N(C)SN(C)C(=O)O/N=C(\C)SC`, the solubility (25 °C) worked out at 0.0729 mM (≈ 25.8 µg/mL).
In general, logP refers to a log measure of how a compound divides between an organic and an aqueous phase. Higher therefore signals a more lipophilic compound. On to `Cc1c(F)c(F)c(COC(=O)C2C(/C=C(\Cl)C(F)(F)F)C2(C)C)c(F)c1F` (stereo not drawn), for which the log partition coefficient (logP) was 6.5.
`CCCC(=NOCC)C1=C(O)CC(C2CCCSC2)CC1=O` (stereo not drawn) had a solubility (20 °C) of 0.123 mM (≈ 40 µg/mL).
In turn, `C/C(=N\NC(=O)Nc1cc(F)cc(F)c1)c1ncccc1C(=O)O` registered a solubility of 0.188 mM (≈ 63 µg/mL).
With `CCOP(=S)(OCC)Oc1ncn(-c2ccccc2)n1`, the logP is 3.34. The solubility (pH 7.0, 20 °C) was found to be 0.0992 mM (≈ 31.1 µg/mL).
As to `COc1cc(OC)nc(Oc2cccc(Oc3nc(OC)cc(OC)n3)c2C(=O)[O-])n1.[Na+]`, the log partition coefficient (logP) was -1.03.
On to `CN(C)NC(=O)CCC(=O)O`, for which the logP was -1.5.
`COC(=O)[C@@H](C)N(C(=O)c1ccccc1)c1ccc(F)c(Cl)c1` displayed a logP of 3.
Same read-out and setting: the figure for `C=CCCCOC(=O)C(CC)N(Cc1ccco1)C(=O)n1ccnc1` (stereo not drawn) is 3.
`CNC(=O)CSP(=O)(OC)OC`: the logP was -0.74.
Take `CCOc1ccc(C(C)(C)COCc2cccc(Oc3ccccc3)c2)cc1`: the solubility (25 °C) is < 2.66e-06 mM.
`CC1CCCCN1CCCOC(=O)c1ccc(Cl)c(Cl)c1` (stereo not drawn) yielded a logP of 4.31.
As for `C#CCOc1cc(-n2nc3n(c2=O)CCCC3)c(Cl)cc1Cl`, the solubility (pH 7.0) was 0.0473 mM (≈ 16 µg/mL).
`C=C(C)CN(CC)c1c([N+](=O)[O-])cc(C(F)(F)F)cc1[N+](=O)[O-]`: under “pH 7.0, 25 °C”, the solubility worked out at 0.000735 mM (≈ 0.245 µg/mL).
In the case of `CCOP(=S)(OCC)OC(Cl)C(Cl)(Cl)Cl` (stereo not drawn), the solubility (20 °C) was < 0.00298 mM.
On the same count and under the same terms, the figure for `CCNc1nc(Cl)nc(NCC)n1` is 0.046 mM (≈ 9.28 µg/mL).
In turn, `CCOC(=O)c1cnn(C)c1S(=O)(=O)NC(=O)Nc1nc(OC)cc(OC)n1` showed a logP of 1.3.
Take `CCOC(=O)Cn1c(=O)sc2cccc(Cl)c21`: the solubility (20 °C) came to 0.173 mM (≈ 47 µg/mL).
Regarding `Oc1ccc(Cl)cc1Cc1cc(Cl)ccc1O`, the solubility (25 °C) amounted to 0.111 mM (≈ 30 µg/mL).
Turning to `CCCOC(=O)NCCCN(C)C`, the solubility (pH 7.0, 20 °C) turned out to be 4780 mM (≈ 900000 µg/mL).
Turning to `COc1cc(OC)nc(NC(=O)NS(=O)(=O)c2ncccc2C(=O)N(C)C)n1`, the logP was 0.01.
For the compound `CCCCN(CC)c1c([N+](=O)[O-])cc(C(F)(F)F)cc1[N+](=O)[O-]`, the lipophilicity (logP) was 5.29. Where the note is “25 °C”, this compound registered a solubility of 0.000298 mM (≈ 0.1 µg/mL).
With `COc1cccc(C(=O)NN(C(=O)c2cc(C)cc(C)c2)C(C)(C)C)c1C`, the logP was determined as 3.7 and the solubility is < 0.00271 mM.
In turn, `Cc1ccc(N(SC(F)(Cl)Cl)S(=O)(=O)N(C)C)cc1` gave a logP of 3.9. For the same compound, for the setting “20 °C”, the solubility was found to be 0.00259 mM (≈ 0.9 µg/mL).
In turn, `CCOC(=O)C(Cl)Cc1cc(-n2nc(C)n(C(F)F)c2=O)c(F)cc1Cl` (stereo not drawn) came in with a logP of 3.36. In addition, the solubility (25 °C) turned out to be 0.0534 mM (≈ 22 µg/mL).
The compound `CCOC(=O)C1=NN(c2ccc(Cl)cc2Cl)C(C)(C(=O)OCC)C1` (stereo not drawn) registered a logP of 3.83. The same compound registered a solubility (pH 6.2, 20 °C) of 0.0536 mM (≈ 20 µg/mL).
In turn, `O=C(NC(=O)c1c(F)cccc1F)Nc1ccc(OC(F)(F)C(F)OC(F)(F)F)c(Cl)c1` (stereo not drawn) came in with a log partition coefficient (logP) of 5.27. This compound also gave a solubility (25 °C) of 0.000108 mM (≈ 0.0531 µg/mL).
Take `CCN(CC)c1nc(C)cc(OP(=S)(OC)OC)n1`: for the setting “pH 7.3, 20 °C”, the solubility stood at 0.0455 mM (≈ 13.9 µg/mL).
`CC(C)OC(=O)[C@@H](C)N(C(=O)c1ccccc1)c1ccc(F)c(Cl)c1`: the logP stood at 3.69.
For the compound `O=S(=O)(c1ccc(Cl)cc1)c1cc(Cl)c(Cl)cc1Cl`, the log partition coefficient (logP) was found to be 4.61. This compound also came in with a solubility (20 °C) of 0.000219 mM (≈ 0.078 µg/mL).
On the same counts, the results for `COc1ccsc1CN(C(=O)CCl)c1c(C)cccc1C` are 3.53 and 0.034 mM (≈ 11 µg/mL).
`CCCN(CCC)c1c([N+](=O)[O-])cc(C(F)(F)F)cc1[N+](=O)[O-]` came in with a solubility (pH 5.0, 25 °C) of 0.000701 mM (≈ 0.235 µg/mL).
On to `COc1cc(OC)nc(N=C(O)NS(=O)(=O)Nc2ccccc2C(=O)C2CC2)n1`, for which the logP came out at 2.05.
In turn, `CC1(C)CCC(Cc2ccc(Cl)cc2)C1(O)Cn1cncn1` (stereo not drawn) gave a logP of 3.85.
Regarding `Cc1cccc(C)c1N(C(=O)CCl)C1CCOC1=O` (stereo not drawn), the logP is 1.39. In addition, the solubility (20 °C) was 0.518 mM (≈ 146 µg/mL).
`CNC(=O)Oc1cccc(N=CN(C)C)c1.Cl` yielded a solubility (25 °C) of 3190 mM.
For the compound `CON=C(C)c1cccc(Oc2nc(OC)cc(OC)n2)c1C(=O)OC`, the logP turned out to be 2.84. The compound also returned a solubility (20 °C) of 0.249 mM (≈ 90 µg/mL).
